Experimental data published in BindingDB's records for patent US20240148821 (Chugai Seiyaku Kabushiki Kaisha, 2024).
Numbered stars: 1 amine (or outer) side, 2 acyl side, 3 side chain; on linkers, the order of the positions; unused ones are H or OH. Bridge positions count the residues as written; N and C are the ends. Square brackets hold non-standard residues; d marks the D form. Peptide text beside a SMILES is read from it. * marks the point of attachment. hPhe(3-Cl-4-CF3) = N[C@@H](CCc1ccc(C(F)(F)F)c(Cl)c1)C(=O)O; hPhe(3-F,4-CF3) = N[C@@H](CCc1ccc(C(F)(F)F)c(F)c1)C(=O)O; X134 = CN([C@@H](Cc1ccc(C#N)nc1)C(=O)[*:2])[*:1]; NMeTyr(3-F) = CN[C@@H](Cc1ccc(O)c(F)c1)C(=O)O; NMeGly(cBu) = CN[C@H](C(=O)O)C1CCC1; NMeCha = CN[C@@H](CC1CCCCC1)C(=O)O; cisHyp = O=C(O)[C@@H]1C[C@H](O)CN1; X108 = O=C(CN(c1ccsc1)[*:1])[*:2]; NMeChg = CN[C@H](C(=O)O)C1CCCCC1; NMeD = CN[C@@H](CC(=O)O)C(=O)O; NMeL = CN[C@@H](CC(C)C)C(=O)O; NMeA = CN[C@@H](C)C(=O)O; Piperidide = C1CCN(*)CC1; Ac5c = NC1(C(=O)O)CCCC1; Nlys = NCCCCNCC(=O)O; Meb = Cc1ccc(C*)cc1; Sar = CNCC(=O)O

target: GTPase KRas (G12D) and Son of Sevenless Homolog 1 (SOS) (Homo sapiens, UniProt P01116, G12D); assay: AlphaScreen Assay
Sequence (P01116 whole entry G12D): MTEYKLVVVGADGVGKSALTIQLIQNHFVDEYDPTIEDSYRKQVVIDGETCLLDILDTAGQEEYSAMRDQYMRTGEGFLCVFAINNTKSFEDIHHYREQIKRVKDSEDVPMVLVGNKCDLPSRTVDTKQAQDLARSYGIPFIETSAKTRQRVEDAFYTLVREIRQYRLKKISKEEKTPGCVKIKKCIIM
Sequence (Q07889 whole entry, further chain): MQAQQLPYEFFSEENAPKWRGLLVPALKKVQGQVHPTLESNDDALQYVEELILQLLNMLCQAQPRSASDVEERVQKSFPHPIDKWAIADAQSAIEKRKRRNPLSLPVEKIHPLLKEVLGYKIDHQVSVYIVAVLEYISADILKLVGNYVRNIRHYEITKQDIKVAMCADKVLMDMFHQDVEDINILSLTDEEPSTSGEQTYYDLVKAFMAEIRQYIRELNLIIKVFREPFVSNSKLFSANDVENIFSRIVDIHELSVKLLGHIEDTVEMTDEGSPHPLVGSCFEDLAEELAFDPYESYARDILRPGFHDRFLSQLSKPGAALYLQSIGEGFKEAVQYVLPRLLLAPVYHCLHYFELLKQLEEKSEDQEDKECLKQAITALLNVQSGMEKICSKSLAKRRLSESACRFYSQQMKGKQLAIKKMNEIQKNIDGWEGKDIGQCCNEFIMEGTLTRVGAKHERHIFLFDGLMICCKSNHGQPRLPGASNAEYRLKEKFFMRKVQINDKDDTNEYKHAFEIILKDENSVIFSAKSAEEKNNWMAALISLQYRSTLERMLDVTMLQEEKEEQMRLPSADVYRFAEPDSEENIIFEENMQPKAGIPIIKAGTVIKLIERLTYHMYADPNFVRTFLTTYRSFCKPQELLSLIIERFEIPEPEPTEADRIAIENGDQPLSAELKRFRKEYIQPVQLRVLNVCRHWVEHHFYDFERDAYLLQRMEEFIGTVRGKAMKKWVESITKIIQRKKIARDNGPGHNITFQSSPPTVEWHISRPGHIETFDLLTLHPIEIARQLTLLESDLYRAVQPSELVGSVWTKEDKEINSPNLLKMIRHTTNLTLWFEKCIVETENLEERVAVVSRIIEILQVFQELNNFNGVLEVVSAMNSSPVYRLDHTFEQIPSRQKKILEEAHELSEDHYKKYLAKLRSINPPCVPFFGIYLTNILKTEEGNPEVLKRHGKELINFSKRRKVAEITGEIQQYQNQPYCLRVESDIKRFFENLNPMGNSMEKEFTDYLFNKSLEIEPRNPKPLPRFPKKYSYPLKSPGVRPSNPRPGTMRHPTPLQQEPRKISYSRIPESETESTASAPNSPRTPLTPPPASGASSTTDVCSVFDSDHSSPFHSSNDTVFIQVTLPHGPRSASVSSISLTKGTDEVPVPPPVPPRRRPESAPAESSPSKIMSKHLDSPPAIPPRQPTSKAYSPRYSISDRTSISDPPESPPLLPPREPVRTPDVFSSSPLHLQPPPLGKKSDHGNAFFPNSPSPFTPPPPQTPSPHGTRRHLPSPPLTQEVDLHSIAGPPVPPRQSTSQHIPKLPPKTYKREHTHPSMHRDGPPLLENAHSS

In order of falling IC50:
1. CC[C@H](C)[C@@H]1NC(=O)[C@H](CC(C)C)N(C)C(=O)C[C@@H](C(=O)N2CCCCC2)N(C)C(=O)[C@H](C2CCCCC2)N(C)C(=O)C2(CCCC2)NC(=O)[C@H](Cc2ccc(O)c(F)c2)N(C)C(=O)[C@H](CCc2ccc(C(F)(F)F)c(Cl)c2)NC(=O)CN(C)C(=O)[C@H](CC2CCCCC2)N(C)C(=O)CN(C)C(=O)CN(C)C1=O [US20240148821, Compound 2170] ([NMeL]I[Sar][Sar][NMeCha][Sar][hPhe(3-Cl-4-CF3)][NMeTyr(3-F)][Ac5c][NMeChg][NMeD]-Piperidide; lactam N-11)  69 nM
2. CC[C@H](C)[C@@H]1NC(=O)[C@H](CC(C)C)N(C)C(=O)C[C@@H](C(=O)N2CCCCC2)N(C)C(=O)[C@H](CC(C)C)N(C)C(=O)C2(CCCC2)NC(=O)[C@@H]2C[C@H](OCc3ccc(C)cc3)CN2C(=O)[C@H](CCc2ccc(C(F)(F)F)c(F)c2)NC(=O)CN(C)C(=O)[C@H](CC2CCCCC2)N(C)C(=O)CN(C)C(=O)CN(C)C1=O [US20240148821, Compound 2140] ([NMeL]I[Sar][Sar][NMeCha][Sar][hPhe(3-F,4-CF3)][cisHyp](Meb)[Ac5c][NMeL][NMeD]-Piperidide; lactam N-11)  32 nM
3. CC[C@H](C)[C@@H]1NC(=O)[C@H](CC(C)C)N(C)C(=O)C[C@@H](C(=O)N2CCCCC2)N(C)C(=O)[C@H](C2CCCCC2)N(C)C(=O)C2(CCCC2)NC(=O)CN(CCCCN)C(=O)[C@H](CCc2ccc(C(F)(F)F)c(Cl)c2)NC(=O)CN(C)C(=O)[C@H](CC2CCCCC2)N(C)C(=O)CN(C)C(=O)CN(C)C1=O [US20240148821, Compound 2186] ([NMeL]I[Sar][Sar][NMeCha][Sar][hPhe(3-Cl-4-CF3)][Nlys][Ac5c][NMeChg][NMeD]-Piperidide; lactam N-11)  7.5 nM
4. CC[C@H](C)[C@@H]1NC(=O)[C@H](CC(C)C)N(C)C(=O)C[C@@H](C(=O)N2CCCCC2)N(C)C(=O)[C@H](C2CCCCC2)N(C)C(=O)C2(CCCC2)NC(=O)[C@H](Cc2ccc(C#N)nc2)N(C)C(=O)[C@H](CCc2ccc(C(F)(F)F)c(Cl)c2)NC(=O)CN(C)C(=O)[C@H](CC2CCCCC2)N(C)C(=O)CN(C)C(=O)CN(C)C1=O [US20240148821, Compound 2169] ([NMeL]I[Sar][Sar][NMeCha][Sar][hPhe(3-Cl-4-CF3)][X134][Ac5c][NMeChg][NMeD]-Piperidide; lactam N-11)  6.1 nM
5. CC[C@H](C)[C@@H]1NC(=O)[C@H](C)N(C)C(=O)C[C@@H](C(=O)N2CCCCC2)N(C)C(=O)[C@H](C2CCC2)N(C)C(=O)C2(CCCC2)NC(=O)CN(c2ccsc2)C(=O)[C@H](CCc2ccc(C(F)(F)F)c(Cl)c2)NC(=O)CN(C)C(=O)[C@H](CC2CCCCC2)N(C)C(=O)CN(C)C(=O)CN(C)C1=O [US20240148821, Compound 2149] ([NMeA]I[Sar][Sar][NMeCha][Sar][hPhe(3-Cl-4-CF3)][X108][Ac5c][NMeGly(cBu)][NMeD]-Piperidide; lactam N-11)  4 nM
